Assay results published in patent publication US10201545B2, “Styrenyl derivative compounds for treating ophthalmic diseases and disorders” (Acucela Inc., priority 2007, dated 2019).

Target: isomerase (Mus musculus (Mouse), UniProt Q91ZQ5)
Assay: In vivo murine isomerase assay (recovery of 11-cis-retinal after photobleaching)
Parameters: species or system CD-1 (albino) male mice
Settings: for inhibition at 10 mg/kg / inhibition at 1 mg/kg / inhibition at 5 mg/kg / ED50: mouse; for inhibition at 10 mg/kg / inhibition at 1 mg/kg / inhibition at 5 mg/kg: po, negative numbers leveled to 0%; for inhibition at 10 mg/kg: 10 mg/kg oral gavage; for inhibition at 1 mg/kg: 1 mg/Kg oral gavage; for inhibition at 5 mg/kg: 5 mg/kg oral gavage; for ED50: estimated, oral gavage, read-out: ED50 (dose of compound that gives 50% inhibition of 11-cis retinal (oxime) recovery)
Description: The capability of styrenyl derivatives to inhibit isomerase is determined by an in vivo murine isomerase assay. Brief exposure of the eye to intense light (“photobleaching” of the visual pigment or simply “bleaching”) is known to photo-isomerize almost all 11-cis-retinal in the retina. The recovery of 11-cis-retinal after bleaching can be used to estimate the activity of isomerase in vivo. Procedures were performed essentially as described by Golczak et al., Proc. Natl. Acad. Sci. USA 102:8162-67 (2005). See also Deigner et al., Science, 244: 968-71 (1989); Gollapalli et al., Biochim Biophys Acta. 1651: 93-101 (2003); Parish, et al., Proc. Natl. Acad. Sci. USA, 14609-13 (1998); Radu, et al., Proc Natl Acad Sci USA 101: 5928-33 (2004). […] Mice were gavaged with styrenyl derivative compounds, Compound 1 or Compound 25. Compound B was included as a positive control, and Compound A with low activity was also included. After 1-72 hours in the dark, the mice were exposed to photobleaching of 3,000 lux of white light for 10 minutes. The mice were allowed to recover 2 hours in the dark. The animals were then sacrificed by carbon dioxide inhalation. Retinoids were extracted from the eye and the regeneration of 11-cis-retinal was assessed at various time intervals. All steps were performed in darkness with minimal redlight illumination (low light darkroom lights and […] flashlights for spot illumination as needed) (see, e.g., Maeda et al., J. Neurochem 85:944-956, 2003; Van Hooser et al., J Biol Chem 277:19173-82, 2002). After the mice were sacrificed, the eyes were immediately removed and placed in liquid nitrogen. The eyes were then homogenized in a glass/glass homogenizer (Kontes Glass Co., homogenizer & pestle 21) containing 1 ml retinoid analysis buffer (50 mM MOPS, 10 mM NH2OH, 50% EtOH, pH 7.0 (stock buffer was stored in absence of ethanol)). The eyes were homogenized until no visible tissue remained (approximately 3 minutes). The samples were incubated 20 minutes at room temperature (including homogenizing) and then placed on ice. One ml cold EtOH was added to the homogenate to rinse the pestle, and the homogenate mixture was transferred to 7 ml glass screwtop tubes on ice. The homogenizer was rinsed with 7 ml hexane, which was added to the 7 ml tubes on ice. The homogenate was mixed by vortexing at high speed for 1 minute. The phases were separated by centrifugation (5 minutes at 4000 rpm, 4° C.). The upper phase was collected and transferred to a clean glass test tube, taking care to avoid disturbing the interface by leaving approximately 0.2 ml of upper phase in the tube. The tubes with the collected upper phase were placed in a heating block at 25° C. and dried under a stream of Argon ( 30 minutes). The lower phase was again extracted by adding 4 ml hexane, vortexing, and separating the phases by centrifugation. The upper phase was collected as described above and pooled into the drying tubes. The dried samples were solubilized in 300 μl Hexane (Fisher Optima grade) and vortexed lightly. The samples were transferred to clean 300 μl glass inserts in HPLC vials using glass pipette and the vials were crimped shut tightly. […] Part #235341). […] The area under the curve for 11-cis retinal oxime was calculated by Agilent Chemstation software and was recorded manually. Data processing was performed using Prizm software. Positive control mice (no compound administered) were sacrificed fully dark-adapted and the eye retinoids analyzed. Light (bleached) control mice (no compound administered) were sacrificed and retinoids isolated and analyzed immediately after light treatment.

isomerase, sequence (Q91ZQ5 whole entry): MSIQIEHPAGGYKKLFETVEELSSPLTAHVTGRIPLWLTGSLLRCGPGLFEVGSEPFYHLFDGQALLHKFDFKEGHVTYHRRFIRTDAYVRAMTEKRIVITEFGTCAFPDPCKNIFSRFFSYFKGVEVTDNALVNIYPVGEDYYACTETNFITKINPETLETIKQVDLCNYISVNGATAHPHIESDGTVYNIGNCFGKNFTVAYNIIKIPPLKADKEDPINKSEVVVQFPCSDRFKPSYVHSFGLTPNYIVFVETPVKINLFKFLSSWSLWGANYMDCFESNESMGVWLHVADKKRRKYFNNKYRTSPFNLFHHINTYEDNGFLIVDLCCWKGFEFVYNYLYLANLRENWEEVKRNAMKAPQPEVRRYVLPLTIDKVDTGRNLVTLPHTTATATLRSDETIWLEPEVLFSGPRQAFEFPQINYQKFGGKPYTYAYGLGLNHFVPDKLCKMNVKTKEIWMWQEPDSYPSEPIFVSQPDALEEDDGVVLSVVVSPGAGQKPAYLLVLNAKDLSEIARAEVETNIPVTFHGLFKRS

inhibition at 10 mg/kg (4 h) | inhibition at 1 mg/kg (6 h) | inhibition at 1 mg/kg (24 h) | inhibition at 5 mg/kg (4 h) | inhibition at 5 mg/kg (24 h) | SMILES | also measured
75% |  |  |  |  | CC1=C(/C=C/c2cccc(C#CCN)c2)C(C)(C)CCC1 [Example 68, (E)-3-(3-(2-(2,6,6-trimethylcyclohex-1-enyl)vinyl)phenyl)prop-2-yn-1-amine] | 
 | 2% | 0% | 53% | 46% | CC1=C(/C=C/c2cccc(OCCN)c2)C(C)(C)CCC1 [Example 31, (E)-2-(3-(2-(2,6,6-trimethylcyclohex-1-enyl)vinyl)phenoxy)ethanamine] | inhibition at 1 mg/kg (2 h): 0%
 | 20% | 13% |  | 85% | NC[C@@H](O)Cc1cccc(/C=C/c2c(Cl)cccc2Cl)c1 [Example 75, (S,E)-1-amino-3-(3-(2,6-dichlorostyryl)phenyl)propan-2-ol] | inhibition at 1 mg/kg (2 h): 19%; inhibition at 5 mg/kg (2 h): 81%; inhibition at 5 mg/kg (6 h): 90%
80% |  |  |  |  | CC1=C(/C=C/c2cccc(CC(C)CN)c2)C(C)(C)CCC1 (stereo not shown) [Example 26, (E)-2-methyl-3-(3-(2-(2,6,6-trimethylcyclohex-1-enyl)vinyl)phenyl)propan-1-amine] | 
 |  |  | 24% | 0% | CC(C)(O)/C=C/c1cccc(CCCN)c1 [Example 79, (E)-4-(3-(3-aminopropyl)phenyl)-2-methylbut-3-en-2-ol] | 
94% | 7% | 16% | 79% | 54% | NCCCc1cccc(/C=C/c2c(Cl)cccc2Cl)c1 [Example 43, (E)-3-(3-(2,6-dichlorostyryl)phenyl)propan-1-amine] | inhibition at 1 mg/kg (2 h): 0%
16% |  |  |  |  | CCCCC/C=C/c1cccc(CCCN)c1 [Example 24, (E)-3-(3-(hept-1-enyl)phenyl)propan-1-amine] | 
 |  |  | 90% | 0% | NCCC(O)c1cccc(/C=C/C2(O)CCCCC2)c1 (stereo not shown) [Example 111, (E)-1-(3-(3-amino-1-hydroxypropyl)styryl)cyclohexanol] | 
80% |  |  |  |  | CC1=C(/C=C/c2cccc(CCCN)c2)C(C)(C)CCC1 [Example 21, (E)-3-(3-(2-(2,6,6-trimethylcyclohex-1-enyl)vinyl)phenyl)propan-1-amine] | 
0% |  |  |  |  | CCC/C=C/c1cccc(CCCN)c1 [Example 23, (E)-3-(3-(pent-1-enyl)phenyl)propan-1-amine] | 
52% |  |  |  |  | CCc1cccc(C)c1C=Cc1cccc(CCCN)c1 (mixture of isomers) [Example 32, (E/Z)-3-(3-(2-ethyl-6-methylstyryl)phenyl)propan-1-amine] | 
0% |  |  |  |  | NCCCc1cccc(/C=C/C2CCCCC2)c1 [Example 22, (E)-3-(3-(2-cyclohexylvinyl)phenyl)propan-1-amine] | 
 | 75% | 77% |  |  | CC1=C(/C=C/c2cccc(C(=O)CCN)c2)C(C)(C)CCC1 [Example 56, (E)-3-amino-1-(3-(2-(2,6,6-trimethylcyclohex-1-enyl)vinyl)phenyl)propan-1-one] | inhibition at 1 mg/kg (2 h): 26%
36% |  |  |  |  | CNCCCc1cccc(/C=C/c2c(C)cccc2C)c1 [Example 7, (E)-3-(3-(2,6-dimethylstyryl)phenyl)-N-methylpropan-1-amine] | inhibition at 10 mg/kg (24 h): 8%
2% |  |  |  |  | Cc1cc(C)cc(C=Cc2cccc(CCCN)c2)c1 (mixture of isomers) [Example 40, (E/Z)-4-(3-(3,5-dimethylstyryl)phenyl)propan-1-amine] | 
 |  | 0% | 60% | 84% | NCCCc1cccc(/C=C/c2c(C(F)(F)F)cccc2C(F)(F)F)c1 [Example 49, (E)-3-(3-(2,6-bis(trifluoromethyl)styryl)phenyl)propan-1-amine] | inhibition at 1 mg/kg (4 h): 10%
 |  |  | 75% | 89% | CC1=C(/C=C/c2cccc(C(F)CCN)c2)C(C)(C)CCC1 (stereo not shown) [Example 55, (E)-3-fluoro-3-(3-(2-(2,6,6-trimethylcyclohex-1-enyl)vinyl)phenyl)propan-1-amine] | inhibition at 1 mg/kg (2 h): 0%
 | 40% | 9% |  | 56% | NC[C@H](O)Cc1cccc(/C=C/c2c(Cl)cccc2Cl)c1 [Example 74, (R,E)-1-amino-3-(3-(2,6-dichlorostyryl)phenyl)propan-2-ol] | inhibition at 1 mg/kg (2 h): 19%; inhibition at 5 mg/kg (2 h): 83%; inhibition at 5 mg/kg (6 h): 91%
 | 1% |  | 21% | 7% | CC1=C(/C=C/c2cccc(C(O)C(C)CN)c2)C(C)(C)CCC1 (stereo not drawn) [Example 59, (E)-(syn/anti)-3-amino-2-methyl-1-(3-(2-(2,6,6-trimethylcyclohex-1-enyl)vinyl)phenyl)propan-1-ol] | inhibition at 1 mg/kg (4 h): 0%
100% |  | 96% |  |  | CC1=C(/C=C/c2cccc(C(O)CCN)c2)C(C)(C)CCC1 (stereo not shown) [Compound 25, (E)-3-amino-1-(3-(2-(2,6,6-trimethylcyclohex-1-enyl)vinyl)phenyl)propan-1-ol] | inhibition at 1 mg/kg (4 h): 89%; ED50 (mice): 0.44 mg/kg
80% | 0% | 0% | 57% | 58% | Cc1cccc(C)c1/C=C/c1cccc(CCCN)c1 [Example 1, (E)-3-(3-(2,6-dimethylstyryl)phenyl)propan-1-amine] | time of maximum inhibitory effect after gavage (isomerase inhibitory activity over time, mice, FIG. 1): ~6 h; inhibition at 1 mg/kg (2 h): 0%; ED50 (mice): 4.3 mg/kg
76% |  |  |  |  | COc1ccccc1C=Cc1cccc(CCCN)c1 (mixture of isomers) [Example 41] | 
 |  | 0% | 97% | 3% | CCCC(O)(/C=C/c1cccc(CCCN)c1)CCC [Example 83, (E)-4-(3-(3-aminopropyl)styryl)heptan-4-ol] | inhibition at 1 mg/kg (4 h): 55%
11% |  |  |  |  | CC1=C(/C=C/c2cccc(C(C)CCN)c2)C(C)(C)CCC1 (stereo not shown) [Example 27, (E)-3-(3-(2-(2,6,6-trimethylcyclohex-1-enyl)vinyl)phenyl)butan-1-amine] | 
 | 0% |  | 12% | 0% | CC1=C(/C=C/c2cccc(C(N)CCN)c2)C(C)(C)CCC1 (stereo not shown) [Example 61, (E)-1-(3-(2-(2,6,6-trimethylcyclohex-1-enyl)vinyl)phenyl)propane-1,3-diamine] | inhibition at 1 mg/kg (4 h): 0%
